{
  "source": "paper PMC10517971",
  "about": "“An inverse agonist of orphan receptor GPR61 acts by a G protein-competitive allosteric mechanism” (Nature Communications, 2023)",
  "key": {"human GPR61 N137A": {"biological_target": "T1, human GPR61 N137A (Homo sapiens, UniProt Q9BZJ8, N137A)", "T1 construct": "expressed in transfected cells; host or cells: CHO-K1, transient (Fugene6)", "T1 sequence (Q9BZJ8 whole entry N137A)": "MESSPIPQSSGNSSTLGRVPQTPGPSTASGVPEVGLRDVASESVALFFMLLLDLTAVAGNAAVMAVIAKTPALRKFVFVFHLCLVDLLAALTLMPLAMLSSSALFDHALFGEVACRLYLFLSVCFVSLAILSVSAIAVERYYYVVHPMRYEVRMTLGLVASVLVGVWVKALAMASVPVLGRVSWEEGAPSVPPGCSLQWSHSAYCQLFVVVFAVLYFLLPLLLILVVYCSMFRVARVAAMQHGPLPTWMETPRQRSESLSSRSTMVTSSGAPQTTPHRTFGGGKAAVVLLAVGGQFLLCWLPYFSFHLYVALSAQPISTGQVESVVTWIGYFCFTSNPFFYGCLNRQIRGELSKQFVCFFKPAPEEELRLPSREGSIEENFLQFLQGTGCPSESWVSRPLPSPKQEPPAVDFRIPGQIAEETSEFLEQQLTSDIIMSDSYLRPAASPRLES", "assay": "Functional cAMP assay (HTRF), transiently transfected CHO-K1 cells, GPR61 N137A mutant", "type": "cell-based", "design": "key to cAMP response (Figure 3e source data): nM cAMP per well, from standard curve", "conditions": "for IC50: Fig. 3e table", "from_the_text": "The human GPR61 (reference sequence NM_031936.4) cDNA was synthesized and subcloned into pcDNA5/FRT/TO (Thermo Fisher, Pittsburgh, PA). The pcDNA5/FRT/TO/ human GPR61 plasmid was then transfected into the Flp-In™-CHO Cell Line (Thermo Fisher, Pittsburgh, PA) and a doxycycline-inducible clonal cell line was selected (CHO TREx hGPR61 WT). Sequences encoding untagged and HiBit/hemagglutinin (HA)-tagged versions of the wild-type human GPR61 were synthesized and cloned into pcDNA3.1. The HiBit ([…]) and HA ([…]) tags were sequentially included after the N-terminal initiator methionine. Four single amino acid substitutions (N137A, R140A, V288A, N345A) were then introduced in the untagged and tagged human GPR61 constructs using site-specific mutagenesis. The nucleotide sequences of all receptor constructs were confirmed by automated DNA sequencing.\nParental CHO-K1 cells were maintained at 37 °C in a humidified environment (5% CO2) and grown in Dulbecco’s Modified Eagle Medium (DMEM) F-12 media (Gibco, 11320033) supplemented with 10% FBS, 1% Glutamax (Gibco, 35050061) and 100units/ml penicillin and streptomycin (Gibco, 15140122. Cells were dissociated using a cell dissociation solution (Gibco, 13151-014), counted, and resuspended in complete culture media without antibiotics. Cells were then transiently transfected using Fugene6 (Promega) in a 384-well plate format (Corning, 3570). For each well, 7500 cells were transfected with 5 ng of receptor plasmid, 20 ng of carrier DNA (Promega, PAE4881) and 0.075 μl Fugene6 in a final volume of 25 μl. Fugene6 and DNA were separately diluted in Optimem media (Gibco, 31985070) (1.25 μl final volume each). Fugene6 and DNA solutions were then combined and incubated for 15 min at room temperature. The cell containing solution (22.5 μl) was then added and transfection reactions were mixed and transferred to the assay plate. Following 24 h incubation at 37 °C, wells were rinsed once and 25 μl of HiBit assay buffer (Phenol-red free DMEM F-12 media containing 2% FBS) was added per well. Surface and total receptor expression was measured separately by adding 25 μl per well of the extracellular (Promega, PRN2421) and lytic (Promega, PRN3040) assay solutions, respectively. Plates were incubated for 10 min at room temperature on a shaker and luciferase activity was measured using an EnVision plate reader (Perkin Elmer, Chicago, IL). Expression was normalized as percent of the wild-type receptor signal. Statistical comparisons of expression levels observed with WT versus GPR61 mutants were made by one-way analysis of variance with Dunnett’s post hoc test.\nA homogeneous Time-Resolved Fluorescence (HTRF) assay (Perkin Elmer, Dynamic2 kit #) was used to assess receptor basal and inverse agonist activity at human GPR61, GPR62, and GPR101. For routine inverse agonist screening frozen CHO TREx human GPR61, GPR62 and GPR101 cells were used. Cells were thawed, resuspended in complete assay media (DMEM F-12, 10% HI FBS, 100 μg/mL Normocin, 700 μg/mL Hygromycin B and 15 μg/mL Blasticidin) containing 1ug/ml doxycycline, plated in white 384 well plates (Corning, 3570) at a density of 750 cells/well (25 μl/ well) and cultured at 37 °C in an incubator overnight. For studies assessing basal and inverse agonist activity at human GPR61 mutants, CHO-K1 cells were transiently transfected using Fugene6, plated in white 384 well plates (7500 cells/well) and grown overnight at 37 °C, as described for receptor expression studies. […]"}, "Human PDE5A1": {"biological_target": "Human PDE5A1 (Homo sapiens, UniProt O76074)", "assay": "Phosphodiesterase Assay (SPA)", "type": "biochemical", "procedure": "(§1) 45 37 °C for 30 min (DAT) or 60 min (NET and SER T). The plate is transferred to the FLIPR Tetra®\n(§2) 46 instrument and the fluorescence of each well was measured (Ex 470- 495 […]).\n(§3) 47 The level of fluores cenc e measured dire ctly relates to the level of uptake of the dye labelled amine,\n(§4) 48 with a reduction in levels being related to an inhibition of the respective transporter.\n(§5) 49 Phosphodiesterase Assays\n(§6) 50 The phosphodiesteras e (P DE) assays m easure the conversion of 3’, 5 ’ -[3H ] cAMP to 5’-[3H] AMP\n(§7) 51 (for PDE 3A1 and 4D3) or 3’, 5’-[3H] cGMP to 5’-[3H] GMP (for 5A1) by the relevant PDE\n(§8) 52 enzyme subtype. Yttrium silicate (YSi) scintillation proximity (SPA) beads bind selectively to 5’-\n(§9) 53 [3H] AMP or 5’-[3H] GMP, with the magnitude of radioactive counts being directly related to\n(§10) 54 PDE enzymatic activity. The ass ay was performed in white walled op aque b ottom 384-well plates.\n(§11) 55 Test compound (1 µL) in dimethyl sulfoxide was added to each well. Enzyme solution was then\n(§12) 56 added to each well in buffer (in mM: Trizma, 50 (pH7.5); MgCl2, 1.3 mM) containing Brij 35\n(§13) 57 (0.01% (v/v)). Subsequently, 20 µL of 3’,5’-[3H] cGMP (125 nM) or 20 µL of 3’,5’-[3H] cAMP\n(§14) 58 (50 nM) was added to each well to start the reaction and the plate was incubated for 30 min at\n(§15) 59 25 °C. The reaction was terminated by the addition of 20 µL of PDE YSi SPA beads (Perkin Elmer,\n(§16) 60 Waltham, MA). Followin g an additional 8 h incubation period the plates were read on a MicroBeta\n(§17) 61 radioactive plat e counter (Perkin Elmer, Waltham, MA, USA) to determine radioactive counts per\n(§18) 63 Bromodomain-Containing Protein 4 (BRD4) Binding Assay\n(§19) 64 The BRD4 fluorescent polarization binding assay uses purified His-tagged BRD4 protein and its\n(§20) 65 interaction with a Cy5 labelled small molecule probe that binds to the BRD4 site involved in the\n(§21) 66 interaction with tetra-acetylated histone H4 peptide. In brief, the assay is performed in low volume"}, "Human PDE3A1": {"biological_target": "Human PDE3A1 (Homo sapiens, UniProt Q14432)", "sequence (Q14432 whole entry)": "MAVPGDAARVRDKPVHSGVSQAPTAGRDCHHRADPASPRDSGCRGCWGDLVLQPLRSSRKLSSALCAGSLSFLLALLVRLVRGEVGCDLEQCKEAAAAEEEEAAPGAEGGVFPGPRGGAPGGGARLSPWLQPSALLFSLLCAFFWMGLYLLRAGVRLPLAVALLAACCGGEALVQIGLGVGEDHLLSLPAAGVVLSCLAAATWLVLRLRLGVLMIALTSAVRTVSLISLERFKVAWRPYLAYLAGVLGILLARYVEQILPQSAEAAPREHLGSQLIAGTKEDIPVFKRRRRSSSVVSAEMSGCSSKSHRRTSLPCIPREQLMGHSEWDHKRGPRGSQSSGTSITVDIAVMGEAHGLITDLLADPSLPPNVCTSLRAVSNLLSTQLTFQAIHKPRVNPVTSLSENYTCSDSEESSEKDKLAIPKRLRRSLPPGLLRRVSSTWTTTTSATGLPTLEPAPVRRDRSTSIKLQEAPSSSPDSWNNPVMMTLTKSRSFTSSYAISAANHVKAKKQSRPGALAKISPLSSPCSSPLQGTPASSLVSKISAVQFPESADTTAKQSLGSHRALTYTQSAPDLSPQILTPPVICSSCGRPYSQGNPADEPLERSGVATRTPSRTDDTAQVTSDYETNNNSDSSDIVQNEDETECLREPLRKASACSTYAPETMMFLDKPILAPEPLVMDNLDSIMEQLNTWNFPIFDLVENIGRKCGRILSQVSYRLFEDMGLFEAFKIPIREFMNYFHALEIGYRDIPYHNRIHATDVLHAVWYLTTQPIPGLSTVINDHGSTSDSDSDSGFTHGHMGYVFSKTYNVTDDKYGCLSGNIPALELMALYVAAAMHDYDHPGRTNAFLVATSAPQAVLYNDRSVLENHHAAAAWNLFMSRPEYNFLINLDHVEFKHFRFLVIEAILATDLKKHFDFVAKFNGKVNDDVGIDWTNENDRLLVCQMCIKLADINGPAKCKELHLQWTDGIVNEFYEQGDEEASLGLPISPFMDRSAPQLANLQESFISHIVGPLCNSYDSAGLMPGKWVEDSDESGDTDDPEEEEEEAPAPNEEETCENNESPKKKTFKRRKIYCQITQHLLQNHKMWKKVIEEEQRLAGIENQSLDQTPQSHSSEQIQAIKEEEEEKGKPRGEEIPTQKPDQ", "assay": "Phosphodiesterase Assay (SPA)", "type": "biochemical", "procedure": "as §1, §2, §3, §4, §5, §6, §7, §8, §9, §10, §11, §12, §13, §14, §15, §16, §17, §18, §19, §20, §21"}, "Human PDE4D3": {"biological_target": "Human PDE4D3 (Homo sapiens, UniProt Q08499)", "sequence (Q08499 1-673 isoform Q08499-2)": "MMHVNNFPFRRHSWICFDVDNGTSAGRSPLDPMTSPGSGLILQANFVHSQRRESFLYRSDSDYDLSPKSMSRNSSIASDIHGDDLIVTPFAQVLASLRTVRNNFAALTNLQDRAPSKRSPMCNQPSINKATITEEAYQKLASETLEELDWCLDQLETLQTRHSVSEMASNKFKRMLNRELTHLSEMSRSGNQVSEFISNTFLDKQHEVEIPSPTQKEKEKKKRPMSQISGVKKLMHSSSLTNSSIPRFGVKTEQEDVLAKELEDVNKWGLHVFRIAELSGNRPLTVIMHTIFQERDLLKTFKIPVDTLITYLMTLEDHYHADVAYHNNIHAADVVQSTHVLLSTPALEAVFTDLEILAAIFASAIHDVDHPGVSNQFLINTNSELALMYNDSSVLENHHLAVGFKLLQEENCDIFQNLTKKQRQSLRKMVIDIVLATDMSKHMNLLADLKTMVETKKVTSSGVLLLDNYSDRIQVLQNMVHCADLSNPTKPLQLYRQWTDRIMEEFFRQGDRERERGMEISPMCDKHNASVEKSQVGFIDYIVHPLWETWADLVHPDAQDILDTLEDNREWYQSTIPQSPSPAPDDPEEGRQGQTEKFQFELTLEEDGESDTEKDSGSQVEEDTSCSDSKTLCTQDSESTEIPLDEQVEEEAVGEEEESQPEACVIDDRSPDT", "assay": "Phosphodiesterase Assay (SPA)", "type": "biochemical", "procedure": "as §1, §2, §3, §4, §5, §6, §7, §8, §9, §10, §11, §12, §13, §14, §15, §16, §17, §18, §19, §20, §21"}},
  "note": "Values joined by “and” are separate entries in the source; they are usually repeats but may differ in a detail not shown here. Equal entries are not always repeated. Where two headings read alike, the source gives them in different places.",
  "data": [
    {"smiles": "CCOc1cc(C)nc(N(CCOC)S(=O)(=O)c2ccc(NCc3c(F)cncc3F)nc2OC)n1", "note": "[Compound 1]", "values": [
      {"measurement": "reduction of potency relative to wild-type in the cAMP assay", "setting": "human GPR61 N137A; Asn137 to Ala mutation vs wild-type", "value": "about 100 fold"},
      {"measurement": "IC50", "setting": "human GPR61 N137A; HiBit-tagged, read-out: GPR61 cAMP IC50 (95% CI), N137A HiBit-tagged", "value": 3340, "unit": "nM"},
      {"measurement": "IC50", "setting": "human GPR61 N137A; untagged, read-out: GPR61 cAMP IC50 (95% CI), N137A Untagged", "value": 1730, "unit": "nM"},
      {"measurement": "cAMP response (Figure 3e source data)", "setting": "human GPR61 N137A; HiBit N137A, concentration -6.5", "value": "4.93 and 5.62 and 3.82 and 3.87 and 6.18 and 6.86"},
      {"measurement": "cAMP response (Figure 3e source data)", "setting": "human GPR61 N137A; HiBit N137A, concentration -7.5", "value": "4.76 and 5.49 and 3.72 and 4.04 and 6.75 and 6.55"},
      {"measurement": "cAMP response (Figure 3e source data)", "setting": "human GPR61 N137A; HiBit N137A, concentration -8", "value": "6.63 and 6.17 and 3.76 and 4.15 and 6.97 and 7.08"},
      {"measurement": "cAMP response (Figure 3e source data)", "setting": "human GPR61 N137A; HiBit N137A, concentration -9", "value": "2.87 and 4.76 and 3.00 and 3.25 and 3.54"},
      {"measurement": "cAMP response (Figure 3e source data)", "setting": "human GPR61 N137A; Untagged N137A, concentration -6", "value": "4.52 and 4.56 and 3.59 and 3.47 and 5.45 and 5.98"},
      {"measurement": "IC50", "setting": "Human PDE5A1", "value": 155, "unit": "µM"},
      {"measurement": "IC50", "setting": "Human PDE3A1", "value": 18.4, "unit": "µM"},
      {"measurement": "IC50", "setting": "Human PDE4D3", "value": "> 35", "unit": "µM"}
    ]}
  ]
}
